Data: the NIST ThermoML archive (doi:10.1016/j.fluid.2013.01.022)
Numbers after ± are expanded uncertainties.

Columns and labels:
[1] = refractive index (Na D-line) (dimensionless); conditions: 298.15 K; 101.33 kPa; Liquid; Standard Abbe refractometry
[2] = 298.15 K; 101.33 kPa; Liquid; Vibrating tube method
[3] = refractive index (Na D-line) (dimensionless); xn = mol fraction of the nth substance listed; conditions: 298.15 K, 101 kPa, Liquid, Standard Abbe refractometry
[4] = xn = mol fraction of the nth substance listed; conditions: 298.15 K, 101 kPa, Liquid, Vibrating tube method

CC(CC(C)(C)C)CP(=O)([O-])CC(C)CC(C)(C)C.CCCCCCCCCCCCCC[P+](CCCCCC)(CCCCCC)CCCCCC
refractive index [1]: 1.47125 ± 0.00039
mass density [2]: 886.43 ± 0.24 kg/m3

CC(CC(C)(C)C)CP(=O)([O-])CC(C)CC(C)(C)C.CCCCCCCCCCCCCC[P+](CCCCCC)(CCCCCC)CCCCCC + CCO
refractive index ([3]; x2 = 0.051): 1.47094 ± 0.00041
refractive index ([3]; x2 = 0.1022): 1.47076 ± 0.00041
refractive index ([3]; x2 = 0.2136): 1.46988 ± 0.0004
refractive index ([3]; x2 = 0.305): 1.46895 ± 0.00039
refractive index ([3]; x2 = 0.4024): 1.46802 ± 0.00039
refractive index ([3]; x2 = 0.5019): 1.46563 ± 0.00038
refractive index ([3]; x2 = 0.5976): 1.46367 ± 0.00038
refractive index ([3]; x2 = 0.6989): 1.459 ± 0.00037
refractive index ([3]; x2 = 0.7998): 1.45104 ± 0.00037
refractive index ([3]; x2 = 0.9003): 1.44331 ± 0.00037
refractive index ([3]; x2 = 0.9499): 1.43816 ± 0.00037
mass density ([4]; x2 = 0.051): 886.25 ± 0.22 kg/m3
mass density ([4]; x2 = 0.1022): 886.05 ± 0.21 kg/m3
mass density ([4]; x2 = 0.2136): 885.54 ± 0.18 kg/m3
mass density ([4]; x2 = 0.305): 885 ± 0.16 kg/m3
mass density ([4]; x2 = 0.4024): 884.17 ± 0.15 kg/m3
mass density ([4]; x2 = 0.5019): 882.93 ± 0.13 kg/m3
mass density ([4]; x2 = 0.5976): 881.05 ± 0.12 kg/m3
mass density ([4]; x2 = 0.6989): 877.74 ± 0.12 kg/m3
mass density ([4]; x2 = 0.7998): 871 ± 0.14 kg/m3
mass density ([4]; x2 = 0.9003): 854.34 ± 0.19 kg/m3
mass density ([4]; x2 = 0.9499): 840.31 ± 0.25 kg/m3

CC(CC(C)(C)C)CP(=O)([O-])CC(C)CC(C)(C)C.CCCCCCCCCCCCCC[P+](CCCCCC)(CCCCCC)CCCCCC + CCOC(C)(C)C
refractive index ([3]; x2 = 0.0425): 1.4696 ± 0.0004
refractive index ([3]; x2 = 0.0954): 1.4691 ± 0.0004
refractive index ([3]; x2 = 0.2026): 1.4673 ± 0.0004
refractive index ([3]; x2 = 0.2904): 1.4653 ± 0.0004
refractive index ([3]; x2 = 0.4013): 1.4623 ± 0.0004
refractive index ([3]; x2 = 0.4971): 1.4587 ± 0.0004
refractive index ([3]; x2 = 0.6023): 1.4539 ± 0.0004
refractive index ([3]; x2 = 0.7002): 1.4464 ± 0.0004
refractive index ([3]; x2 = 0.7999): 1.435 ± 0.0004
refractive index ([3]; x2 = 0.8998): 1.4225 ± 0.0004
refractive index ([3]; x2 = 0.9503): 1.4154 ± 0.0004
mass density ([4]; x2 = 0.0425): 886 ± 0.22 kg/m3
mass density ([4]; x2 = 0.0954): 885.1 ± 0.21 kg/m3
mass density ([4]; x2 = 0.2026): 882.46 ± 0.19 kg/m3
mass density ([4]; x2 = 0.2904): 879.48 ± 0.17 kg/m3
mass density ([4]; x2 = 0.4013): 874.66 ± 0.15 kg/m3
mass density ([4]; x2 = 0.4971): 869.23 ± 0.14 kg/m3
mass density ([4]; x2 = 0.6023): 861.11 ± 0.14 kg/m3
mass density ([4]; x2 = 0.7002): 850.33 ± 0.16 kg/m3
mass density ([4]; x2 = 0.7999): 832.96 ± 0.22 kg/m3
mass density ([4]; x2 = 0.8998): 802.31 ± 0.32 kg/m3
mass density ([4]; x2 = 0.9503): 776.41 ± 0.43 kg/m3

CCOC(C)(C)C [2-ethoxy-2-methylpropane]
refractive index [1]: 1.37358 ± 0.00033
mass density [2]: 735.85 ± 0.14 kg/m3

CCO [ethanol]
refractive index [1]: 1.35925 ± 0.00033
mass density [2]: 785.22 ± 0.12 kg/m3

CCCCCCCCCCCCCC[P+](CCCCCC)(CCCCCC)CCCCCC.[Cl-] [trihexyl(tetradecyl)phosphonium chloride]
refractive index [1]: 1.48175 ± 0.00039
mass density [2]: 891.82 ± 0.24 kg/m3

CCCCCCCCCCCCCC[P+](CCCCCC)(CCCCCC)CCCCCC.[Cl-] [trihexyl(tetradecyl)phosphonium chloride] + CCOC(C)(C)C
refractive index ([3]; x2 = 0.0473): 1.4804 ± 0.0004
refractive index ([3]; x2 = 0.1037): 1.4788 ± 0.0004
refractive index ([3]; x2 = 0.1961): 1.4762 ± 0.0004
refractive index ([3]; x2 = 0.3076): 1.4727 ± 0.0004
refractive index ([3]; x2 = 0.3968): 1.4688 ± 0.0004
refractive index ([3]; x2 = 0.5075): 1.4624 ± 0.0004
refractive index ([3]; x2 = 0.5981): 1.4562 ± 0.0004
refractive index ([3]; x2 = 0.6992): 1.4463 ± 0.0004
refractive index ([3]; x2 = 0.7993): 1.432 ± 0.0004
refractive index ([3]; x2 = 0.8987): 1.4104 ± 0.0004
refractive index ([3]; x2 = 0.9496): 1.3943 ± 0.0004
mass density ([4]; x2 = 0.0473): 890.24 ± 0.22 kg/m3
mass density ([4]; x2 = 0.1037): 888.11 ± 0.21 kg/m3
mass density ([4]; x2 = 0.1961): 884.09 ± 0.19 kg/m3
mass density ([4]; x2 = 0.3076): 878.3 ± 0.17 kg/m3
mass density ([4]; x2 = 0.3968): 872.72 ± 0.16 kg/m3
mass density ([4]; x2 = 0.5075): 864.28 ± 0.15 kg/m3
mass density ([4]; x2 = 0.5981): 855.37 ± 0.16 kg/m3
mass density ([4]; x2 = 0.6992): 841.62 ± 0.18 kg/m3
mass density ([4]; x2 = 0.7993): 821.34 ± 0.24 kg/m3
mass density ([4]; x2 = 0.8987): 790.03 ± 0.31 kg/m3
mass density ([4]; x2 = 0.9496): 767.05 ± 0.38 kg/m3
